{
  "source": "patent US6613304B2",
  "about": "“Radiometal complexes of 2-pyrrolylthiones and their use as radiopharmaceuticals for imaging and therapy” (University of British Columbia, priority 2000, dated 2003)",
  "key": {"[1]": {"assay": "Stability towards oxidation", "format": "physicochemical", "details": "for stability towards oxidation: in solid state and in solution"}, "[2]": {"details": "cited from earlier work; for clearance relative to OIH: % of that of OIH"}, "[3]": {"details": "cited from earlier work"}, "[4]": {"assay": "Renal imaging: scintigraphic biodistribution of Tc-99m complexes in rats", "format": "in vivo, male Sprague and Dawley rats", "details": "for scintigraphic image of the kidneys: one hour post injection, FIG. 5; for accumulation in the cortex: 1.5 min post injection, very fast linear accumulation", "description": "A group of 3 male Sprague and Dawley rats were anaesthetised by intra-muscluar administration of a mixture of Ketamine Xylazine (1 ml/Kg). A 26 guage Butterfly was introduced into the lateral tail vein and filled with heparinised physiological saline. The animals were injected with the indicated radiopharmaceutical, in the minutes following the beginning of the acquisition.\nDose activities were measured in an Accucal 2001 dose calibrator Nuclear Pharmacy Inc. (Albuquerque, N. Mex., U.S.A). Scvintigraphic mages were recorded with a Starcam 4000i XRT Gamma camera General Electric (Saint Albans, UK) equipped with a parallel, medium energy, high resolution collimator. Image analysis was performed on a Genie PNR model nuclear medicine dedicated computer General Electric (Saint Albans, UK).\nThe camera was set to record a series of 32 images at 1 min intervals each, the animals were injected successively starting from animal A after the camera was started. All injections were finished within the first one and a half minute. Following each injection the catheter was flushed with 0.5 ml of physiological saline. Following this first acquisition a second dynamic acquisition was recorded at a rate of one image every 10 minutes. The animals woke up 90 min after injection at which time the study was terminated.\nFor analysis, the areas of interest were traced around the organs of interest (right and left kidneys for the first dynamic study; and heart, left kidney and bladder at image 60 min. post-injection on the second study) and the whole body of the rats. The result were expressed as counts per seconds or as percent of the whole body activity at a given time, and are presented in FIGS. 5-9."}, "[5]": {"details": "healthy subjects; cited from earlier work"}},
  "note": "Entries after “also recorded” stand apart in the source; their conditions may differ.",
  "data": [
    {"compound": "COc1ccc(C(=S)c2ccc[nH]2)cc1OC", "note": "[3,4-dimethoxyphenyl-2-pyrrolylthione, 3,4-Dimethoxyphenyl-2-pyrrolylthione]", "values": [
      {"measurement": "stability at room temperature", "setting": "[1]; atmospheric oxygen", "value": "unstable at room temperature"}
    ]},
    {"compound": "Nc1ccc(C(=O)NCC(=O)O)cc1", "note": "[PAH, p-aminohippurate]", "values": [
      {"measurement": "extracted from the renal arterial plasma in a single pass through the renal parenchyma", "setting": "[2]; in vivo", "value": "~90", "unit": "%"}
    ]},
    {"compound": "O=C(O)CNC(=O)c1ccc(NC(=O)CN(CC(=O)O)CC(=O)O)cc1", "note": "[PAHIDA, p-[(biscarboxymethylaminomethyl)carbamino]hippuric acid]", "values": [
      {"measurement": "clearance relative to OIH", "setting": "[2]", "value": "less than 50%"}
    ]},
    {"compound": "O=C([O-])CN=C([O-])CN=C([O-])CN=C([O-])C[S-].[O-2].[Tc+4]", "note": "[Tc-99m-MAG3, ^99mTc-mercaptoacetyltriglycine]", "values": [
      {"measurement": "clearance relative to OIH", "setting": "[2]", "value": "50-60%"},
      {"measurement": "injected dose found in the kidneys", "setting": "[2]; a few minutes post injection", "value": "1-2%"},
      {"measurement": "plasma protein binding", "setting": "[3]", "value": "very high"}
    ]},
    {"compound": "Bis(2,2′-dipyrrolylthionato) ^99g Tc]oxotechnetium [compound 6]", "values": [
      {"measurement": "stability towards oxidation", "setting": "[1]", "value": "stable towards oxidation"}
    ]},
    {"compound": "Bis(3,4-dimethoxyphenyl-2-pyrrolylthionato) [99g Tc]oxotechnetium [compound 8]", "values": [
      {"measurement": "stability towards oxidation", "setting": "[1]", "value": "stable towards oxidation"}
    ]},
    {"compound": "Bis(p-methoxyphenyl-2-pyrrolylthionato) [^99g Tc]oxotechnetium [compound 7]", "values": [
      {"measurement": "stability towards oxidation", "setting": "[1]", "value": "stable towards oxidation"}
    ]},
    {"compound": "Tc-99m-dimercaptosuccinic acid [DMSA, reference compound]", "values": [
      {"measurement": "activity in the calyx area", "setting": "[4]; 1 hour post-injection", "value": "significant activity in the calyx area"},
      {"measurement": "blood clearance (heart area used as a measure of blood activity)", "setting": "[4]; 1 hour post-injection", "value": "more rapidly cleared"},
      {"measurement": "overall kidney uptake", "setting": "[4]; 1 hour post-injection, left kidney only", "value": "highest activity"},
      {"measurement": "scintigraphic image of the kidneys", "setting": "[4]", "value": "kidneys are well visualised"},
      {"measurement": "plasma protein binding", "setting": "[3]", "value": "almost completely bound to the proteins"},
      {"measurement": "steady level of renal uptake, of the activity administered", "setting": "[5]", "value": "~30", "unit": "%"},
      {"measurement": "time after injection until which renal activity increases", "setting": "[5]", "value": "6 to 8", "unit": "h"}
    ]},
    {"compound": "^99mTcO-disulfo-di-2-pyrrolylthionate [compound 9]", "values": [
      {"measurement": "accumulation in the cortex", "setting": "[4]", "value": 20, "unit": "%"},
      {"measurement": "excretion rate as evaluated by measuring the activity found in the bladder", "setting": "[4]; 1 hour post-injection", "value": "best excretion rate"},
      {"measurement": "detected radioactivity in the kidneys reaching a plateau", "setting": "[4]; as compared to DMSA, FIGS. 6-8", "value": "reach a plateau more rapidly"},
      {"measurement": "scintigraphic image of the kidneys", "setting": "[4]; listed as TcSL-11", "value": "better resolved the kidneys; also recorded: kidneys are well visualised"},
      {"measurement": "accumulation in the cortex at plateau", "setting": "[4]; plateau at about 35 min to 1 hour post injection", "value": 22, "unit": "%"}
    ]},
    {"compound": "^99mTcO-tetrasulfo-di-2-pyrrolylthionate [compound 10]", "values": [
      {"measurement": "accumulation in the cortex", "setting": "[4]", "value": 20, "unit": "%"},
      {"measurement": "excretion rate as evaluated by measuring the activity found in the bladder", "setting": "[4]; 1 hour post-injection", "value": "best excretion rate"}
    ]}
  ]
}
